From patent US20260125375A1 (Pfizer Inc., priority 2022, published 2026)
Read-outs that look alike come from different tables or passages of the source.

Columns and labels:
[1] = molecular target: T1, CBL-B (Homo sapiens, UniProt Q13191); assay: Jurkat HiBit-IL2 assay (c-CBL KO), reporter cell line expressing CBL-B only; assay type: cell-based; conditions: geometric mean, read-out: C-CBL KO EC50 (nM) GMean
T1 construct: endogenous in cells; host or cells: Jurkat HiBit-IL2 reporter cells, C-CBL knocked out by CRISPR
T1 sequence (Q13191 whole entry): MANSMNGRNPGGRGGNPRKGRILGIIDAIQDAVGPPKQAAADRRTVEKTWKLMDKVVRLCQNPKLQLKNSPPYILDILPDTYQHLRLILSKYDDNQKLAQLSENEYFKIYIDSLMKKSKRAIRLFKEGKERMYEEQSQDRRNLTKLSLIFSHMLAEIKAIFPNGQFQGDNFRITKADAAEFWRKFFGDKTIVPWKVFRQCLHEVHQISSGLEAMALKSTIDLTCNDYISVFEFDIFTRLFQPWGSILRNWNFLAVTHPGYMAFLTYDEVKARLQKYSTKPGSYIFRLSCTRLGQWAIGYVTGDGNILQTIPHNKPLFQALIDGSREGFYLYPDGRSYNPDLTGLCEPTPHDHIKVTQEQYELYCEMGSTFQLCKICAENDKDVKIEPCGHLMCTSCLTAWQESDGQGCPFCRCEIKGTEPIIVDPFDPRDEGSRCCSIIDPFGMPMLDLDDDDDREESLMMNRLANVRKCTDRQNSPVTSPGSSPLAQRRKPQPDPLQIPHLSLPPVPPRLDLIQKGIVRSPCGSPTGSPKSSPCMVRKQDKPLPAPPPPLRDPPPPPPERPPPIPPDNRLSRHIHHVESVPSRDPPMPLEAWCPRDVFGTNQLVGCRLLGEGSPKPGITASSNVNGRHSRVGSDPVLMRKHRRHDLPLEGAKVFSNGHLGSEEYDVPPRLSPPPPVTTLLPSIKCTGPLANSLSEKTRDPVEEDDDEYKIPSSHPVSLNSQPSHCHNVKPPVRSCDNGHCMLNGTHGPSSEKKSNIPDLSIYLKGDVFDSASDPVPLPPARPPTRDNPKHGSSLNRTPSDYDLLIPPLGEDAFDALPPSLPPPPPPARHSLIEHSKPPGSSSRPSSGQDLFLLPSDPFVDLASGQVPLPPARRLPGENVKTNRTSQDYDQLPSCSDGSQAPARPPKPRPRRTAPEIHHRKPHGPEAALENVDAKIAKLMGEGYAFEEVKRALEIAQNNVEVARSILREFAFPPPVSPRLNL
Procedure, shortened: (§1)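 CRISPR knockout Jurkat HiBit-IL2 reporter cells (20,000/well) were preincubated 1 h with compounds (0.1% DMSO), then stimulated 4 h at 37 °C with anti-CD3 (1 μg/ml) and anti-CD28 (2 μg/ml) final. IL-2 was read by HiBiT lytic luminescence, normalized as fold over antibody-only baseline; EC50 reported as geometric mean.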

[2] = molecular target: T2, C-CBL (Homo sapiens, UniProt P22681); assay: Jurkat HiBit-IL2 assay (CBL-B KO), reporter cell line expressing C-CBL only; assay type: cell-based; conditions: geometric mean, read-out: CBL-B KO EC50 (nM) GMean
T2 construct: endogenous in cells; host or cells: Jurkat HiBit-IL2 reporter cells, CBL-B knocked out by CRISPR
Procedure, shortened: as §1

[3] = molecular target: T3, WT CBL-B (36-427) (Homo sapiens, UniProt Q13191); assay: Surface Plasmon Resonance (SPR) assay, binding affinity and kinetics, CBL-B; conditions: SPR at 10° C., biotinylated WT CBL-B (36-427) on streptavidin chip; geometric mean; read-out: CBL-B SPR Kd (nM) GMean
T3 construct: N-terminal biotinylated WT CBL-B (36-427) and C-CBL (46-435) were captured on a streptavidin (SA) coated sensor chip
T3 sequence (Q13191 36-427): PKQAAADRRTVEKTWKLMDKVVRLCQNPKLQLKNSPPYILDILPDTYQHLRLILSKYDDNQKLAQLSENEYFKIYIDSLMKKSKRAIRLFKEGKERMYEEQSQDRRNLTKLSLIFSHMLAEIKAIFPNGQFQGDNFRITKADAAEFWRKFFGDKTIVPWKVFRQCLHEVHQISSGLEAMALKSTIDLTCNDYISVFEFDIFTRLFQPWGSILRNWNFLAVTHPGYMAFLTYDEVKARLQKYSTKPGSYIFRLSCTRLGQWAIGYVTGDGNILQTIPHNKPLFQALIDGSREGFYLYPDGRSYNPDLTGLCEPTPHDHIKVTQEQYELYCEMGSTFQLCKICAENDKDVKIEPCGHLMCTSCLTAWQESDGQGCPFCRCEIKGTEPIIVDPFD
Procedure, shortened: (§2)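 Biotinylated WT CBL-B (36-427) or C-CBL (46-435) captured on streptavidin chip (~5000–6000 RU); binding at 10° C in HEPES buffer pH 7.2 with 2% DMSO. Multi-cycle: 2-fold, 10-point series from 10 or 100 μM, 90 s association. Single-cycle: 3-fold, 6-point, 0.001–1 μM, 120 s association, >5400 s dissociation.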

[4] = molecular target: T4, C-CBL (46-435) (Homo sapiens, UniProt P22681); assay: Surface Plasmon Resonance (SPR) assay, binding affinity and kinetics, C-CBL; conditions: SPR at 10° C., biotinylated C-CBL (46-435) on streptavidin chip; geometric mean; read-out: C-CBL SPR Kd (nM) GMean
T4 construct: N-terminal biotinylated WT CBL-B (36-427) and C-CBL (46-435) were captured on a streptavidin (SA) coated sensor chip
T4 sequence (P22681 46-435): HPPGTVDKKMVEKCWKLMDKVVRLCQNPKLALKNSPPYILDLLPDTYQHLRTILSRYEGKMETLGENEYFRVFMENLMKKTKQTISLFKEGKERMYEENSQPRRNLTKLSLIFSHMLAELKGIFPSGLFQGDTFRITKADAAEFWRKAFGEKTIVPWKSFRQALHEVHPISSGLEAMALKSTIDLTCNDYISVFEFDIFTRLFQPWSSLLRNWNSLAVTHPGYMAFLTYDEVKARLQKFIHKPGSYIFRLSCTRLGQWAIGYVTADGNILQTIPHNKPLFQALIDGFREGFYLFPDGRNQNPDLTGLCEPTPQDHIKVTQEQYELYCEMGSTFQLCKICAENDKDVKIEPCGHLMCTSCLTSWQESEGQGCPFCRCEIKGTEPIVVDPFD
Procedure, shortened: as §2

[5] = C-CBL KO (expressing CBL-B only), Table 16b (further repetition)
[6] = c-CBL KO (CBL-B only), anti-CD3/anti-CD28 stimulation 4 hours, Table 16a
[7] = CBL-B KO (C-CBL only), anti-CD3/anti-CD28 stimulation 4 hours, Table 16a
[8] = CBL-B KO (expressing C-CBL only), Table 16b (further repetition)

## C[C@@H](N[C@H]1CC[C@@H]1O)c1nc(C(F)(F)F)cc2c(-c3cccc([C@H](c4nncn4C)C4CCC4)c3)n[nH]c12 (single isomer, unassigned) [Example D22]
[1]; [5]
  EC50: 12 nM
[1]; [6]
  EC50: 5 nM
[2]; [7]
  EC50: 79 nM
[2]; [8]
  EC50: 91 nM
[3]
  Kd: 1.5 nM
[4]
  Kd: 9.8 nM

## C[C@H](N[C@@H]1CC[C@@H]1O)c1nc(C(F)(F)F)cc2c(-c3cccc([C@H](c4nncn4C)C4CCC4)c3)n[nH]c12 (single isomer, unassigned) [Example D28]
[1]; [6]
  EC50: 1 nM
[2]; [7]
  EC50: 4 nM
[3]
  Kd: 0.4 nM
[4]
  Kd: 2.2 nM

## C[C@H](NC1CC[C@H]1O)c1nc(C(F)(F)F)cc2c(-c3cccc([C@H](c4nncn4C)C4CCC4)c3)n[nH]c12 (single isomer, unassigned) [Example D30]
[1]; [5]
  EC50: 10 nM
[1]; [6]
  EC50: 3 nM
[2]; [7]
  EC50: 43 nM
[2]; [8]
  EC50: 52 nM
[3]
  Kd: 1.1 nM
[4]
  Kd: 5.6 nM

## C[C@H](NC1CC(F)(F)C1)c1nc(C(F)(F)F)cc2c(-c3cccc([C@H](c4nncn4C)C4CCC4)c3)n[nH]c12 (single isomer, unassigned) [Example D90]
[1]; [5]
  EC50: 73 nM
[2]; [8]
  EC50: 313 nM
[3]
  Kd: 6.5 nM
[4]
  Kd: 77.4 nM

## C[C@@H](NC1CC(F)(F)C1)c1nc(C(F)(F)F)cc2c(-c3cccc([C@H](c4nncn4C)C4CCC4)c3)n[nH]c12 (single isomer, unassigned) [Example D91]
[1]; [5]
  EC50: 41 nM
[2]; [8]
  EC50: 238 nM
[3]
  Kd: 6.3 nM
[4]
  Kd: 35.4 nM

## Cn1cnnc1[C@@H](c1cccc(-c2n[nH]c3c(CN[C@H]4CCC(F)(F)C4)nc(C(F)(F)F)cc23)c1)C1CCC1 (single isomer, unassigned) [Example G1]
[1]; [6]
  EC50: 70 nM
[2]; [7]
  EC50: 775 nM
[3]
  Kd: 8 nM
[4]
  Kd: 60.8 nM

## Cn1cnnc1[C@@H](c1cccc(-c2n[nH]c3cnc(C(F)(F)F)cc23)c1)C1CCC1 [Example A1, 3-{3-[(R)-cyclobutyl(4-methyl-4H-1,2,4-triazol-3-yl)methyl]phenyl}-5-(trifluoromethyl)-1H-pyrazolo[3,4-c]pyridine]
[1]; [5]
  EC50: 1810 nM
[1]; [6]
  EC50: > 2990 nM
[2]; [7]
  EC50: > 5280 nM
[2]; [8]
  EC50: 4500 nM
[3]
  Kd: 34.6 nM
[4]
  Kd: 931 nM

## Cn1cnnc1CC1(c2cccc(-c3n[nH]c4cnc(C(F)(F)F)cc34)c2)COC1 [Example B1, 3-(3-(3-((4-methyl-4H-1,2,4-triazol-3-yl)methyl)oxetan-3-yl)phenyl)-5-(trifluoromethyl)-1H-pyrazolo[3,4-c]pyridine]
[1]; [6]
  EC50: > 8710 nM
[2]; [7]
  EC50: > 9980 nM
[3]
  Kd: 49.5 nM
[4]
  Kd: 450 nM

## Cn1cnnc1CC1(c2cccc(-c3n[nH]c4ncc(C(F)(F)F)cc34)c2)COC1 [Example B3, 3-(3-{3-[(4-methyl-4H-1,2,4-triazol-3-yl)methyl]oxetan-3-yl}phenyl)-5-(trifluoromethyl)-1H-pyrazolo[3,4-b]pyridine]
[1]; [6]
  EC50: 1710 nM
[2]; [7]
  EC50: 4060 nM
[3]
  Kd: 67.9 nM
[4]
  Kd: 861 nM

## Cn1cnnc1[C@@H](c1cccc(-c2n[nH]c3c(CN[C@@H]4CCC[C@@H]4O)nc(C(F)(F)F)cc23)c1)C1CCC1 [Example C1, (1S,2R)-2-({[3-{3-[(R)-cyclobutyl(4-methyl-4H-1,2,4-triazol-3-yl)methyl]phenyl}-5-(trifluoromethyl)-1H-pyrazolo[3,4-c]pyridin-7-yl]methyl}amino)cyclopentan-1-ol]
[1]; [5]
  EC50: 116 nM
[1]; [6]
  EC50: 25 nM
[2]; [7]
  EC50: 275 nM
[2]; [8]
  EC50: 584 nM
[3]
  Kd: 1.2 nM
[4]
  Kd: 7.6 nM

## Cn1cnnc1[C@@H](c1cccc(-c2n[nH]c3c(CN[C@H]4CCC[C@@H]4O)nc(C(F)(F)F)cc23)c1)C1CCC1 [Example C4, (1S,2S)-2-({[3-{3-[(R)-cyclobutyl(4-methyl-4H-1,2,4-triazol-3-yl)methyl]phenyl}-5-(trifluoromethyl)-1H-pyrazolo[3,4-c]pyridin-7-yl]methyl}amino)cyclopentan-1-ol]
[1]; [6]
  EC50: 114 nM
[2]; [7]
  EC50: 1050 nM
[3]
  Kd: 2.1 nM
[4]
  Kd: 49.9 nM

## C[C@H]1CN(Cc2nc(C(F)(F)F)cc3c(-c4cccc([C@H](c5nncn5C)C5CCC5)c4)n[nH]c23)CCO1 [Example C6, 3-{3-[(R)-cyclobutyl(4-methyl-4H-1,2,4-triazol-3-yl)methyl]phenyl}-7-{[(2S)-2-methylmorpholin-4-yl]methyl}-5-(trifluoromethyl)-1H-pyrazolo[3,4-c]pyridine]
[1]; [6]
  EC50: 115 nM
[2]; [7]
  EC50: 807 nM
[3]
  Kd: 4.4 nM
[4]
  Kd: 102 nM

## C[C@H]1CCCN(Cc2nc(C(F)(F)F)cc3c(-c4cccc([C@H](c5nncn5C)C5CCC5)c4)n[nH]c23)C1 [Example C7, 3-{3-[(R)-cyclobutyl(4-methyl-4H-1,2,4-triazol-3-yl)methyl]phenyl}-7-{[(3S)-3-methylpiperidin-1-yl]methyl}-5-(trifluoromethyl)-1H-pyrazolo[3,4-c]pyridine]
[1]; [6]
  EC50: 58 nM
[2]; [7]
  EC50: 519 nM
[3]
  Kd: 2.7 nM
[4]
  Kd: 47.7 nM

## C[C@H](N[C@H]1CCC(F)(F)C1)c1nc(C(F)(F)F)cc2c(-c3cccc([C@H](c4nncn4C)C4CCC4)c3)n[nH]c12 [Example C8]
[1]; [6]
  EC50: 6 nM
[2]; [7]
  EC50: 44 nM
[3]
  Kd: 2.2 nM
[4]
  Kd: 5 nM

## C[C@@H](N[C@H]1CCC(F)(F)C1)c1nc(C(F)(F)F)cc2c(-c3cccc([C@H](c4nncn4C)C4CCC4)c3)n[nH]c12 [Example C9]
[1]; [5]
  EC50: 32 nM
[1]; [6]
  EC50: 32 nM
[2]; [7]
  EC50: 606 nM
[2]; [8]
  EC50: 176 nM
[3]
  Kd: 3.1 nM
[4]
  Kd: 22.1 nM

## CC(NC1CCCC1)c1nc(C(F)(F)F)cc2c(-c3cccc([C@H](c4nncn4C)C4CCC4)c3)n[nH]c12 (stereo partly drawn) [Example C14, N-{(1ξ)-1-[3-{3-[(R)-cyclobutyl(4-methyl-4H-1,2,4-triazol-3-yl)methyl]phenyl}-5-(trifluoromethyl)-1H-pyrazolo[3,4-c]cyclopen-7-yl]ethyl}cyclopentanamine]
[1]; [5]
  EC50: 5 nM
[1]; [6]
  EC50: 4 nM
[2]; [7]
  EC50: 26 nM
[2]; [8]
  EC50: 17 nM
[3]
  Kd: 1.4 nM
[4]
  Kd: 4.1 nM

## C[C@@H](NC1CCC1)c1nc(C(F)(F)F)cc2c(-c3cccc(C4(Cc5nncn5C)COC4)c3)n[nH]c12 [Example C16]
[1]; [6]
  EC50: 75 nM
[2]; [7]
  EC50: 689 nM
[3]
  Kd: 2 nM
[4]
  Kd: 83.4 nM

## C[C@@H]1CCCN(Cc2nc(C(F)(F)F)cc3c(-c4cccc(C5(Cc6nncn6C)COC5)c4)n[nH]c23)C1 [Example C29, 7-{[(3R)-3-methylpiperidin-1-yl]methyl}-3-(3-{3-[(4-methyl-4H-1,2,4-triazol-3-yl)methyl]oxetan-3-yl}phenyl)-5-(trifluoromethyl)-1H-pyrazolo[3,4-c]pyridine]
[1]; [6]
  EC50: 204 nM
[2]; [7]
  EC50: 1320 nM
[3]
  Kd: 3.8 nM
[4]
  Kd: 195 nM

## C[C@H]1CCCN(Cc2nc(C(F)(F)F)cc3c(-c4cccc(C5(Cc6nncn6C)COC5)c4)n[nH]c23)C1 [Example C30, 7-{[(3S)-3-methylpiperidin-1-yl]methyl}-3-(3-{3-[(4-methyl-4H-1,2,4-triazol-3-yl)methyl]oxetan-3-yl}phenyl)-5-(trifluoromethyl)-1H-pyrazolo[3,4-c]pyridine]
[1]; [6]
  EC50: 32 nM
[2]; [7]
  EC50: 232 nM
[3]
  Kd: 3 nM
[4]
  Kd: 35.9 nM

## Cn1cnnc1CC1(c2cccc(-c3n[nH]c4c(CN5CCCCC5)nc(C(F)(F)F)cc34)c2)COC1 [Example C33, 3-(3-{3-[(4-methyl-4H-1,2,4-triazol-3-yl)methyl]oxetan-3-yl}phenyl)-7-[(piperidin-1-yl)methyl]-5-(trifluoromethyl)-1H-pyrazolo[3,4-c]pyridine]
[1]; [6]
  EC50: 116 nM
[2]; [7]
  EC50: 1840 nM
[3]
  Kd: 6.8 nM
[4]
  Kd: 107 nM
